In US20080125663A1, “Pre-And Intra-Operative Imaging of Testicular Torsion” (University of Rochester Medical Center, priority 2006, published 2008):
“Also recorded” adds a separate entry of the source.

Experiments:
[1] = tested on: mammals; conditions: cited from earlier work; for neuronal toxicity: used in mammals
[2] = tested on: testes of a rat; assay: Near IR fluorescence imaging of testicular perfusion after unilateral interruption of blood flow to the right testis; type: in vivo
Method: Intraoperative video angiography is performed with a laser-fluorescence imaging device (Novadaq Technologies, Inc., Toronto, Canada) consisting of a near infrared (NIR) laser light source and a NIR-sensitive digital camcorder. For measurements, the unit is positioned 30 to 40 cm from the area of interest. ICG, dissolved in water, is then injected as a bolus. When ICG is used as the imaging dye, NIR light emitted by the laser light source induces ICG fluorescence. The fluorescence is typically imaged by a video camera, with optical filtering to block ambient and laser light so that only ICG fluorescence is captured. […] Two rats were subjected to unilateral interruption of blood flow to the right testis. In rat A, a bulldog clamp was used, in rat B, a mosquito clamp (a smaller clamp designed to cut off blood flow in small blood vessels) was used. ICG was administered by IV to each rat to determine the ability to visualize the degree to which the testicle underwent hypoperfusion or lack of perfusion. Prior to administration of ICG, rat A was first subjected to near IR and imaged. […] 0.5 ml of ICG at a concentration of 2.5 mg/ml was then administered by IV. The right spermatic cord was clamped with a bulldog clamp to create vascular obstruction and the testicles were imaged.

[3] = cited from earlier work
[4] = bulldog clamp, 0.5 ml of 2.5 mg/ml ICG IV, imaged through the scrotum

Row | Compound | neuronal toxicity [1] | fluorescence of the right testicle after removal of the clamp (reperfusion) ([2]; bulldog clamp removed from the spermatic cord) | fluorescence of the right testicle during clamp obstruction of the right spermatic cord ([2]; bulldog clamp, 0.5 ml of 2.5 mg/ml ICG IV, exposed testes) | fluorescence of the left hemiscrotum (unclamped side) [2, 4] | fluorescence of the right hemiscrotum (clamped side) [2, 4] | differential perfusion seen after occlusion ([2]; mosquito (vascular) clamp, ICG IV) | distribution ([3]; after intravenous injection, with normal vascular permeability) | time to binding, mainly to globulins (1-lipoproteins) ([3]; after intravenous injection) | enterohepatic recirculation ([3]; in vivo) | excretion ([3]; in vivo) | metabolism in the body ([3]; in vivo) | reabsorption from the intestine ([3]; in vivo) | toxicity ([1]; in vivo)
1 | N=C(N)c1ccc(/C=C/c2ccc(C(=N)N)cc2O)cc1 [Fluorogold] | low evidence of neuronal toxicity | – | – | – | – | – | – | – | – | – | – | – | –
2 | CC1(C)C(/C=C/C=C/C=C/C=C2\N(CCCCS(=O)(=O)O)c3ccc4ccccc4c3C2(C)C)=[N+](CCCCS(=O)(=O)[O-])c2ccc3ccccc3c21 [ICG, indocyanine green] | low evidence of neuronal toxicity | restoration of fluorescence; also recorded: Fluoresence of the right testicle was observed | absence of fluorescence | intense fluorescence | low fluorescence | obvious differential perfusion | remains intravascular | 1 to 2 s | does not undergo enterohepatic recirculation | excreted exclusively by the liver | not metabolized | not reabsorbed from the intestine | low toxicity
3 | Fast Blue | low evidence of neuronal toxicity | – | – | – | – | – | – | – | – | – | – | – | –
